Experimental data as given in US12564631B2, “Phytosphingosine derivatives as adjuvants in immune stimulation” (Helmholtz-Zentrum für Infektionsforschung GmbH, priority 2020, dated 2026).

Legend:
[1] = Ebensen et al J. Immunol. 179 (2007) 2065; cited from earlier work
[2] = tested on: Antigen-specific multifunctional CD4+ T cells; experiment: Antigen-specific multifunctional T cells (intracellular cytokine staining, flow cytometry) in spleen cells of immunized mice; type: in vivo, BALB/c mice; settings: adjuvanted Ovalbumin, CD4+ and CD8+ T cell populations
Description: FIG. 8: Antigen-specific multifunctional CD4+ T cells. (A) Groups of 3 BALB/c mice were immunized intramuscularly with PBS (control) or with three doses (14 days apart) of Ovalbumin (30 μg), alone or adjuvanted with c-di-AMP or aßGalCerMPEG or IPB 2033-2044 (15 μg). At 14 days after the second immunization, spleen cells were harvested, restimulated with Ovalbumin, intracellularly stained for double positive Th cytokines (IFN-γ, IL-2, TNF-α, IL-4 and IL-17), and analyzed by flow cytometry. […] At 14 days after the second immunization, spleen cells were harvested, restimulated with Ovalbumin, intracellularly stained for triple positive Th cytokines (IFN-γ, IL-2, TNF-α, IL-4 and IL-17), and analyzed by flow cytometry.
In order to characterize more accurately the cellular immune response, the production of intracellular cytokines was measured in CD4+ and CD8+ T cells. […]
Therefore, mice were immunized to assess the in vivo performance of CDA in an active vaccination setting. To assess vaccination effectivity, the frequencies of cytokine producers among the CD4+ and CD8+ T cell populations were evaluated by intracellular cytokine staining and flow cytometry. […] Thus, the frequency of T cells producing single cytokines or combinations (positive events/million) was analyzed by flow cytometry.

Structure (SMILES)	solubility [1]	frequency of triple, double and single cytokine producers among T cells [2]
CCCCCCCCCCCCCCCCCCCCCCCCCC(=O)N[C@@H](CO[C@H]1O[C@H](CO)[C@H](O)[C@H](O)[C@H]1O)[C@H](O)[C@H](O)CCCCCCCCCCCCCC [KRN7000]	low solubility	–
Nc1ncnc2c1ncn2[C@@H]1O[C@@H]2COP(=O)(O)O[C@H]3[C@@H](O)[C@H](n4cnc5c(N)ncnc54)O[C@@H]3COP(=O)(O)O[C@H]2[C@H]1O [CDA, c-di-AMP]	–	increased the frequency of triple, double and single cytokine producers
